Measurements as given in patent US20120052122A1, “Treatment Of Chronic Obstructive Pulmonary Disease With Phosphodiesterase-4 Inhibitor” (Nycomed GmbH, priority 2010, published 2012).

Tests used:
[1] = human, in vivo
[2] = system: CYP 1A2, 2A6, 2B6, 2C8, 2C9, 2C19, 2D6, 2E1, 3A4/5, or 4A9/11; assay: CYP inhibition in human liver microsomes; conditions: therapeutic plasma concentrations
[3] = Human pharmacokinetics

Compound: O=C(Nc1c(Cl)c[n+]([O-])cc1Cl)c1ccc(OC(F)F)c(OCC2CC2)c1 [roflumilast N-oxide]
- Absorption or pharmacokinetics on co-administration with an antacid [1]: did not alter
- Inhibition of CYP 1A2, 2A6, 2B6, 2C8, 2C9, 2C19, 2D6, 2E1, 3A4/5, or 4A9/11 [2]: do not inhibit
- Linearity of pharmacokinetics ([3]; 250 mcg to 1,000 mcg): dose-proportional
- Time of maximum plasma concentrations after dosing ([3]; fasted state): about eight
- Cmax ([3]; in vivo): 8.5 ng/mL
- Plasma AUC ([3]; in vivo): 315 ugxh/L
- Time to steady state plasma concentrations ([3]; once daily dosing): ~6 days
- Median plasma effective half-life ([3]; oral dose): ~30 h
